The values that follow are results of earlier work, collected in publication PMC9772450, “Gel-forming antagonist provides a lasting effect on CGRP-induced vasodilation” (Frontiers in Pharmacology, 2022).

For the data set the following is noted: administered as a 25% gel depot; ref Oberg and Lamberts, 2016; cited from earlier work. The text has this: Our screening of long-acting antagonists has originally focused on lipidated peptides because lipidation is known to increase the half-lives of various peptides by enabling them to be bound by albumin and other serum proteins, therefore reducing elimination by kidneys and degradation by serum proteases ([Drucker et al., 2010]). […] This finding is consistent with earlier studies of benzoylated and lipidated CGRP8-37 analogs which ha ...

Take Lanreotide: the “Period over which the gel releases the monomer” value was “a month”.
